Experimental findings from patent publication US10894817B2, “Fatty acid modified urocortin-2 analogs for the treatment of diabetes and chronic kidney disease” (priority 2016, dated 2021) are described below.

The structures appear in SMILES notation. Where two headings read alike, the source gives them in different places. Starred links: 1 amine or outer side, 2 acyl side, 3 side chain; linkers in the order of their positions; H or OH if unused. Non-standard residues stand in square brackets, D forms with d. Residues, ends and D or L forms follow the SMILES beside them. Groups on a side chain read outwards from the residue. *: point of attachment. C20 diacid = O=C(O)CCCCCCCCCCCCCCCCCCC(=O)*; γGlu = O=C(O)[C@H](CCC(=O)[*:2])N[*:1]; NMeI = CC[C@H](C)[C@H](NC)C(=O)O; AEEA = NCCOCCOCC(=O)O

This experiment concerns the target T1, human CRHR2b (Homo sapiens, UniProt Q13324).
T1 construct: expressed in transfected cells; host or cells: Chinese Hamster Ovary (CHO) cells, transient transfection
T1 sequence (Q13324 1-438 isoform Q13324-2): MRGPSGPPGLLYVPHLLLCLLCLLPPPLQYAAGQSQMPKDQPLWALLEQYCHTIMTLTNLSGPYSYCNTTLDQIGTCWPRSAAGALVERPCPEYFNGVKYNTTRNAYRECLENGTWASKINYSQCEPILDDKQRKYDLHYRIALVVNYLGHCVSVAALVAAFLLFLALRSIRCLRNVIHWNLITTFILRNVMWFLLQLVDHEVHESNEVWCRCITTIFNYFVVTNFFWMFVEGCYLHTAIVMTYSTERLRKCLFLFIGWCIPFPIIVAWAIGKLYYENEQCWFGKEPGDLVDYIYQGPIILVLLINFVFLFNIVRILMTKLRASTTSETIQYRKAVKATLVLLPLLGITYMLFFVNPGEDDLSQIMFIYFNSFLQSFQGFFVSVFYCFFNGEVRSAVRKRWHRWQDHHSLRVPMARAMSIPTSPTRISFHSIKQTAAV
Description: human CRHR2b cell-based cAMP assay. As to conditions: cAMP assay, read-out: hCRHR2b Average EC50. The method, boiled down: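 ED50 values are means ± SEM over several runs, curve-fitted from cAMP in pmol, calibrated against unlabeled-cAMP standards. Detection was HTRF competition, ratio 665/620 nm, after 30 min agonist exposure at 37 °C.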
(In general: Changes in cAMP serve as a functional read-out for many G protein-coupled receptors.)

[1] abbreviates: Table 26, compounds of Example 9.

As for `CC[C@H](C)[C@H](NC)C(=O)N[C@H](C(=O)N[C@@H](CC(C)C)C(=O)N[C@@H](CO)C(=O)N[C@@H](CC(C)C)C(=O)N[C@@H](CC(=O)O)C(=O)N[C@H](C(=O)N1CCC[C@H]1C(=O)N[C@H](C(=O)NCC(=O)N[C@@H](CC(C)C)C(=O)N[C@@H](CC(C)C)C(=O)N[C@@H](CCC(N)=O)C(=O)N[C@H](C(=O)N[C@@H](CC(C)C)C(=O)N[C@@H](CC(C)C)C(=O)N[C@@H](CCC(=O)O)C(=O)N[C@@H](CCC(N)=O)C(=O)N[C@@H](CCC(=O)O)C(=O)N[C@@H](CCCCN)C(=O)N[C@@H](CCC(N)=O)C(=O)N[C@@H](CCC(=O)O)C(=O)N[C@@H](CCCCN)C(=O)N[C@@H](CCC(=O)O)C(=O)N[C@@H](CCCCN)C(=O)N[C@@H](CCC(N)=O)C(=O)N[C@@H](CCC(N)=O)C(=O)N[C@@H](C)C(=O)N[C@@H](CCCCNC(=O)CC[C@H](NC(=O)COCCOCCNC(=O)CC[C@H](NC(=O)CC[C@H](NC(=O)CCCCCCCCCCCCCCCCCCC(=O)O)C(=O)O)C(=O)O)C(=O)O)C(=O)N[C@H](C(=O)N[C@@H](CC(N)=O)C(=O)N[C@@H](C)C(=O)N[C@@H](CCC(N)=O)C(=O)N[C@H](C(=O)N[C@@H](CC(C)C)C(=O)N[C@@H](C)C(=O)N[C@@H](CCC(N)=O)C(=O)N[C@H](C(N)=O)C(C)C)[C@@H](C)CC)[C@@H](C)O)[C@@H](C)CC)[C@@H](C)CC)C(C)C)C(C)C` [Compound 61] (H-[NMeI]VLSLDVPIGLLQILLEQEKQEKEKQQAK([γGlu-AEEA-γGlu-γGlu-C20 diacid])TNAQILAQV-NH2), the 50% effective concentration (EC50) (in general, the concentration that produces a half-maximal response) under setting [1] worked out at 2.5 nM.

For `CC[C@H](C)[C@H](NC)C(=O)N[C@H](C(=O)N[C@@H](CC(C)C)C(=O)N[C@@H](CO)C(=O)N[C@@H](CC(C)C)C(=O)N[C@@H](CC(=O)O)C(=O)N[C@H](C(=O)N1CCC[C@H]1C(=O)N[C@H](C(=O)NCC(=O)N[C@@H](CC(C)C)C(=O)N[C@@H](CC(C)C)C(=O)N[C@@H](CCC(N)=O)C(=O)N[C@H](C(=O)N[C@@H](CC(C)C)C(=O)N[C@@H](CC(C)C)C(=O)N[C@@H](CCC(=O)O)C(=O)N[C@@H](CCC(N)=O)C(=O)N[C@@H](CCC(=O)O)C(=O)N[C@@H](CCCCN)C(=O)N[C@@H](CCC(N)=O)C(=O)N[C@@H](CCC(=O)O)C(=O)N[C@@H](CCCCN)C(=O)N[C@@H](CCC(=O)O)C(=O)N[C@@H](CCCCN)C(=O)N[C@@H](CCC(N)=O)C(=O)N[C@@H](CCC(N)=O)C(=O)N[C@@H](C)C(=O)N[C@@H](CCCCNC(=O)CC[C@H](NC(=O)CC[C@H](NC(=O)COCCOCCNC(=O)COCCOCCNC(=O)CC[C@H](NC(=O)CC[C@H](NC(=O)CCCCCCCCCCCCCCCCCCC(=O)O)C(=O)O)C(=O)O)C(=O)O)C(=O)O)C(=O)N[C@H](C(=O)N[C@@H](CC(N)=O)C(=O)N[C@@H](C)C(=O)N[C@@H](CCC(N)=O)C(=O)N[C@H](C(=O)N[C@@H](CC(C)C)C(=O)N[C@@H](C)C(=O)N[C@@H](CCC(N)=O)C(=O)N[C@H](C(N)=O)C(C)C)[C@@H](C)CC)[C@@H](C)O)[C@@H](C)CC)[C@@H](C)CC)C(C)C)C(C)C` [Compound 62] (H-[NMeI]VLSLDVPIGLLQILLEQEKQEKEKQQAK([γGlu-γGlu-AEEA-AEEA-γGlu-γGlu-C20 diacid])TNAQILAQV-NH2), the EC50 under setting [1] is 4.5 nM. Same read-out and setting: to `CC[C@H](C)[C@H](NC)C(=O)N[C@H](C(=O)N[C@@H](CC(C)C)C(=O)N[C@@H](CO)C(=O)N[C@@H](CC(C)C)C(=O)N[C@@H](CC(=O)O)C(=O)N[C@H](C(=O)N1CCC[C@H]1C(=O)N[C@H](C(=O)NCC(=O)N[C@@H](CC(C)C)C(=O)N[C@@H](CC(C)C)C(=O)N[C@@H](CCC(N)=O)C(=O)N[C@H](C(=O)N[C@@H](CC(C)C)C(=O)N[C@@H](CC(C)C)C(=O)N[C@@H](CCC(=O)O)C(=O)N[C@@H](CCC(N)=O)C(=O)N[C@@H](CCC(=O)O)C(=O)N[C@@H](CCCCN)C(=O)N[C@@H](CCC(N)=O)C(=O)N[C@@H](CCC(=O)O)C(=O)N[C@@H](CCCCN)C(=O)N[C@@H](CCC(=O)O)C(=O)N[C@@H](CCCCN)C(=O)N[C@@H](CCC(N)=O)C(=O)N[C@@H](CCC(N)=O)C(=O)N[C@@H](C)C(=O)N[C@@H](CCCCNC(=O)CC[C@H](NC(=O)CC[C@H](NC(=O)COCCOCCNC(=O)CC[C@H](NC(=O)CC[C@H](NC(=O)CCCCCCCCCCCCCCCCCCC(=O)O)C(=O)O)C(=O)O)C(=O)O)C(=O)O)C(=O)N[C@H](C(=O)N[C@@H](CC(N)=O)C(=O)N[C@@H](C)C(=O)N[C@@H](CCC(N)=O)C(=O)N[C@H](C(=O)N[C@@H](CC(C)C)C(=O)N[C@@H](C)C(=O)N[C@@H](CCC(N)=O)C(=O)N[C@H](C(N)=O)C(C)C)[C@@H](C)CC)[C@@H](C)O)[C@@H](C)CC)[C@@H](C)CC)C(C)C)C(C)C` [Compound 63] (H-[NMeI]VLSLDVPIGLLQILLEQEKQEKEKQQAK([γGlu-γGlu-AEEA-γGlu-γGlu-C20 diacid])TNAQILAQV-NH2) belongs 1.3 nM; to `CC[C@H](C)[C@H](NC)C(=O)N[C@H](C(=O)N[C@@H](CC(C)C)C(=O)N[C@@H](CO)C(=O)N[C@@H](CC(C)C)C(=O)N[C@@H](CC(=O)O)C(=O)N[C@H](C(=O)N1CCC[C@H]1C(=O)N[C@H](C(=O)NCC(=O)N[C@@H](CC(C)C)C(=O)N[C@@H](CC(C)C)C(=O)N[C@@H](CCC(N)=O)C(=O)N[C@H](C(=O)N[C@@H](CC(C)C)C(=O)N[C@@H](CC(C)C)C(=O)N[C@@H](CCC(=O)O)C(=O)N[C@@H](CCC(N)=O)C(=O)N[C@@H](CCC(=O)O)C(=O)N[C@@H](CCCCN)C(=O)N[C@@H](CCC(N)=O)C(=O)N[C@@H](CCC(=O)O)C(=O)N[C@@H](CCCCN)C(=O)N[C@@H](CCC(=O)O)C(=O)N[C@@H](CCCCN)C(=O)N[C@@H](CCC(N)=O)C(=O)N[C@@H](CCC(N)=O)C(=O)N[C@@H](C)C(=O)N[C@@H](CCCCNC(=O)CC[C@H](NC(=O)CC[C@H](NC(=O)CC[C@H](NC(=O)CC[C@H](NC(=O)CCCCCCCCCCCCCCCCCCC(=O)O)C(=O)O)C(=O)O)C(=O)O)C(=O)O)C(=O)N[C@H](C(=O)N[C@@H](CC(N)=O)C(=O)N[C@@H](C)C(=O)N[C@@H](CCC(N)=O)C(=O)N[C@H](C(=O)N[C@@H](CC(C)C)C(=O)N[C@@H](C)C(=O)N[C@@H](CCC(N)=O)C(=O)N[C@H](C(N)=O)C(C)C)[C@@H](C)CC)[C@@H](C)O)[C@@H](C)CC)[C@@H](C)CC)C(C)C)C(C)C` [Compound 64] (H-[NMeI]VLSLDVPIGLLQILLEQEKQEKEKQQAK([γGlu-γGlu-γGlu-γGlu-C20 diacid])TNAQILAQV-NH2), 1.63 nM.

Regarding `CC[C@H](C)[C@H](NC)C(=O)N[C@H](C(=O)N[C@H](C(=O)N[C@@H](CO)C(=O)N[C@@H](CC(C)C)C(=O)N[C@@H](CC(=O)O)C(=O)N[C@H](C(=O)N1CCC[C@H]1C(=O)N[C@H](C(=O)NCC(=O)N[C@@H](CC(C)C)C(=O)N[C@@H](CC(C)C)C(=O)N[C@@H](CCC(N)=O)C(=O)N[C@H](C(=O)N[C@@H](CC(C)C)C(=O)N[C@@H](CC(C)C)C(=O)N[C@@H](CCC(=O)O)C(=O)N[C@@H](CCC(N)=O)C(=O)N[C@@H](CCC(=O)O)C(=O)N[C@@H](CCCCN)C(=O)N[C@@H](CCC(N)=O)C(=O)N[C@@H](CCC(=O)O)C(=O)N[C@@H](CCCCN)C(=O)N[C@@H](CCC(=O)O)C(=O)N[C@@H](CCCCN)C(=O)N[C@@H](CCC(N)=O)C(=O)N[C@@H](CCC(N)=O)C(=O)N[C@@H](C)C(=O)N[C@@H](CCCCNC(=O)CC[C@H](NC(=O)COCCOCCNC(=O)COCCOCCNC(=O)CC[C@H](NC(=O)CC[C@H](NC(=O)CCCCCCCCCCCCCCCCCCC(=O)O)C(=O)O)C(=O)O)C(=O)O)C(=O)N[C@H](C(=O)N[C@@H](CC(N)=O)C(=O)N[C@@H](C)C(=O)N[C@@H](CCC(=O)O)C(=O)N[C@H](C(=O)N[C@@H](CC(C)C)C(=O)N[C@@H](C)C(=O)N[C@@H](CCC(N)=O)C(=O)N[C@H](C(N)=O)C(C)C)[C@@H](C)CC)[C@@H](C)O)[C@@H](C)CC)[C@@H](C)CC)C(C)C)[C@@H](C)O)C(C)C` [Compound 66] (H-[NMeI]VTSLDVPIGLLQILLEQEKQEKEKQQAK([γGlu-AEEA-AEEA-γGlu-γGlu-C20 diacid])TNAEILAQV-NH2), the EC50 under setting [1] is 1.45 nM. With `CC[C@H](C)[C@H](NC)C(=O)N[C@H](C(=O)N[C@H](C(=O)N[C@@H](CO)C(=O)N[C@@H](CC(C)C)C(=O)N[C@@H](CC(=O)O)C(=O)N[C@H](C(=O)N1CCC[C@H]1C(=O)N[C@H](C(=O)NCC(=O)N[C@@H](CC(C)C)C(=O)N[C@@H](CC(C)C)C(=O)N[C@@H](CCC(N)=O)C(=O)N[C@H](C(=O)N[C@@H](CC(C)C)C(=O)N[C@@H](CC(C)C)C(=O)N[C@@H](CCC(=O)O)C(=O)N[C@@H](CCC(N)=O)C(=O)N[C@@H](CCC(=O)O)C(=O)N[C@@H](CCCCN)C(=O)N[C@@H](CCC(N)=O)C(=O)N[C@@H](CCC(=O)O)C(=O)N[C@@H](CCCCN)C(=O)N[C@@H](CCC(=O)O)C(=O)N[C@@H](CCCCN)C(=O)N[C@@H](CCC(N)=O)C(=O)N[C@@H](CCC(N)=O)C(=O)N[C@@H](C)C(=O)N[C@@H](CCCCNC(=O)COCCOCCNC(=O)COCCOCCNC(=O)CC[C@H](NC(=O)CC[C@H](NC(=O)CCCCCCCCCCCCCCCCCCC(=O)O)C(=O)O)C(=O)O)C(=O)N[C@H](C(=O)N[C@@H](CC(N)=O)C(=O)N[C@@H](C)C(=O)N[C@@H](CCC(=O)O)C(=O)N[C@H](C(=O)N[C@@H](CC(C)C)C(=O)N[C@@H](C)C(=O)N[C@@H](CCC(N)=O)C(=O)N[C@H](C(N)=O)C(C)C)[C@@H](C)CC)[C@@H](C)O)[C@@H](C)CC)[C@@H](C)CC)C(C)C)[C@@H](C)O)C(C)C` [Example 5] (H-[NMeI]VTSLDVPIGLLQILLEQEKQEKEKQQAK([AEEA-AEEA-γGlu-γGlu-C20 diacid])TNAEILAQV-NH2), the 50% effective concentration (EC50) (CHO cells transfected with human CRHR2b, mean ± SEM of runs) was determined as 1.01 ± 0.23 nM.
